Reference: US20110166121A1 (LG LIFE SCIENCES LTD., priority 2008, published 2011)

How the values were obtained:
Human P2Y12 receptor = molecular target: T1, Human P2Y12 receptor (Homo sapiens, UniProt Q9H244); assay: Human P2Y12 receptor cell membrane binding assay with [3H] 2-Mes-ADP; details: 1 nM [3H] 2-Mes-ADP, membranes of HEK cells expressing P2Y12 receptor; read-out: Binding activity (IC50)
T1 construct: expressed in transfected cells; host or cells: HEK cells
Method in brief: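 Competition binding used 1 nM [3H]2-MeS-ADP on P2Y12-expressing HEK cell membranes for 1 h at room temperature, followed by filtration and scintillation counting.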

[1] = tested on: Human platelet aggregation caused by ADP; assay: Inhibition of ADP-induced platelet aggregation (Mimic-human PRP); format: cell-based; details: 20 μM ADP, human platelet concentrate diluted with PPP, absorption at 595 nm
Method in brief: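 Ki came from non-linear sigmoidal fits of inhibition, measured as the 3-min rise in absorbance at 595 nm after 20 μM ADP, relative to 0/20 μM ADP controls. Platelets (3–4×10^8/mL in PPP-diluted human PRP) were exposed to 0.01–30 μM compound for 20 min at room temperature beforehand.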

T1 sequence (Q9H244 whole entry): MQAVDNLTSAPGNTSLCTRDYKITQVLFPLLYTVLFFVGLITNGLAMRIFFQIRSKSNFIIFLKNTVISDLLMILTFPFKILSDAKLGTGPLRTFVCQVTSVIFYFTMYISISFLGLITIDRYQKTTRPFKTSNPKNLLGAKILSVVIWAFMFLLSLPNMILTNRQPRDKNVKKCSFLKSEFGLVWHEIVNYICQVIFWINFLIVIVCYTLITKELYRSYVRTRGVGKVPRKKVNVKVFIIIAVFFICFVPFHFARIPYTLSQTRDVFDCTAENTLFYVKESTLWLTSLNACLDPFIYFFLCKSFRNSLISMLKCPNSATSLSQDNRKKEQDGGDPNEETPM

SMILES | IC50 (Human P2Y12 receptor) [nM] | Ki [1] [nM]
CCCc1cc2c(N3CCn4c(nnc4C(F)(F)F)C3)nc(OCCNS(=O)(=O)C(F)(F)F)nc2s1 [Example 3-69, C,C,C-Trifluoro-N-{2-[6-propyl-4-(3-trifluoromethyl-5,6-dihydro-8H-[1,2,4]triazolo[4,3-a]pyrazin-7-yl)-thieno[2,3-d]pyrimidin-2-yloxy]-ethyl}-methanesulfonamide] | 180 | 4100
CCCc1cc2c(N3CCn4c(nnc4C(F)(F)F)C3)nc(OCCNC(=O)c3ccccn3)nc2s1 [Example 3-70, Pyridine-2-carboxylic acid {2-[6-propyl-4-(3-trifluoromethyl-5,6-dihydro-8H-[1,2,4]triazolo[4,3-a]pyrazin-7-yl)-thieno[2,3-d]pyrimidin-2-yloxy]-ethyl}-amide] | 17 | 7
CCCc1cc2c(N3CCn4c(nnc4C(F)(F)F)C3)nc(C(N)=O)nc2s1 [Example 4-3, 6-Propyl-4-(3-trifluoromethyl-5,6-dihydro-8H-[1,2,4]triazolo[4,3-a]pyrazin-7-yl)-thieno[2,3-d]pyrimidine-2-carboxylic acid amide] | 630 | 120
CCCc1cc2c(N3CCn4c(nnc4C(F)(F)F)C3)nc(C(=O)NCCC(=O)OCC)nc2s1 [Example 4-6, 3-{[6-Propyl-4-(3-trifluoromethyl-5,6-dihydro-8H-[1,2,4]triazolo[4,3-a]pyrazin-7-yl)thieno[2,3-d]pyrimidine-2-carbonyl]amino}propionic acid ethyl ester] | 2890 | 1200
CCCc1cc2c(N3CCn4c(nnc4C(F)(F)F)C3)nc(C(=O)NCCC(=O)O)nc2s1 [Example 4-7, 3-{[6-Propyl-4-(3-trifluoromethyl-5,6-dihydro-8H-[1,2,4]triazolo[4,3-a]pyrazin-7-yl)thieno[2,3-d]pyrimidine-2-carbonyl]amino}propionic acid] | 620 | 320
CCCc1cc2c(N3CCn4c(nnc4C(F)(F)F)C3)nc(C(=O)NCC(=O)OCC)nc2s1 [Example 4-8, {[6-Propyl-4-(3-trifluoromethyl-5,6-dihydro-8H-[1,2,4]triazolo[4,3-a]pyrazin-7-yl)thieno[2,3-d]pyrimidine-2-carbonyl]amino}acetic acid ethyl ester] | 470 | 550
CCCc1cc2c(N3CCn4c(nnc4C(F)(F)F)C3)nc(C(=O)NCC(=O)O)nc2s1 [Example 4-9, {[6-Propyl-4-(3-trifluoromethyl-5,6-dihydro-8H-[1,2,4]triazolo[4,3-a]pyrazin-7-yl)thieno[2,3-d]pyrimidine-2-carbonyl]amino}acetic acid] | 1100 | 5100
CCCc1cc2c(N3CCn4c(nnc4C(F)(F)F)C3)nc(C(=O)NCC(O)CO)nc2s1 (stereo not shown) [Example 4-10, 6-Propyl-4-(3-trifluoromethyl-5,6-dihydro-8H-[1,2,4]triazolo[4,3-a]pyrazin-7-yl)thieno[2,3-d]pyrimidine-2-carboxylic acid (2,3-dihydroxy-propyl)amide] | 1550 | 200
CCCc1cc2c(N3CCn4c(nnc4C(F)(F)F)C3)nc(C(=O)NCCC#N)nc2s1 [Example 4-11, 6-Propyl-4-(3-trifluoromethyl-5,6-dihydro-8H-[1,2,4]triazolo[4,3-a]pyrazin-7-yl)thieno[2,3-d]pyrimidine-2-carboxylic acid (2-cyanoethyl)amide] | 660 | 600
CCCc1cc2c(N3CCn4c(nnc4C(F)(F)F)C3)nc(C(=O)N3CCC(O)C3)nc2s1 (stereo not shown) [Example 4-12, (3-Hydroxy-pyrrolidin-1-yl)-[6-propyl-4-(3-trifluoromethyl-5,6-dihydro-8H-[1,2,4]triazolo[4,3-a]pyrazin-7-yl)thieno[2,3-d]pyrimidin-2-yl]methanon] | 1100 | 95
CCCc1cc2c(N3CCn4c(nnc4C(F)(F)F)C3)nc(C(=O)N3CCN(C)CC3)nc2s1 [Example 4-13, (4-Methyl-piperazin-1-yl)-[6-propyl-4-(3-trifluoromethyl-5,6-dihydro-8H-[1,2,4]triazolo[4,3-a]pyrazin-7-yl)thieno[2,3-d]pyrimidin-2-yl]methanone] | 4920 | 1800
CCCc1cc2c(N3CCn4c(nnc4C(F)(F)F)C3)nc(C(=O)N3CCCC(C(=O)OCC)C3)nc2s1 (stereo not shown) [Example 4-14, 1-[6-Propyl-4-(3-trifluoromethyl-5,6-dihydro-8H-[1,2,4]triazolo[4,3-a]pyrazin-7-yl)thieno[2,3-d]pyrimidine-2-carbonyl]piperidine-3-carboxylic acid ethyl ester] | 1290 | 460
CCCc1cc2c(N3CCn4c(nnc4C(F)(F)F)C3)nc(C(=O)N3CCCC(C(=O)O)C3)nc2s1 (stereo not shown) [Example 4-15, 1-[6-Propyl-4-(3-trifluoromethyl-5,6-dihydro-8H-[1,2,4]triazolo[4,3-a]pyrazin-7-yl)thieno[2,3-d]pyrimidine-2-carbonyl]piperidine-3-carboxylic acid] | 630 | 690
CCCc1cc2c(N3CCn4c(nnc4C(F)(F)F)C3)nc(C(=O)Nc3ccccc3)nc2s1 [Example 4-16, 6-Propyl-4-(3-trifluoromethyl-5,6-dihydro-8H-[1,2,4]triazolo[4,3-a]pyrazin-7-yl)-thieno[2,3-d]pyrimidine-2-carboxylic acid phenylamide] | 650 | > 4000
CCCc1cc2c(N3CCn4c(nnc4C(F)(F)F)C3)nc(C(=O)NCc3ccccc3)nc2s1 [Example 4-17, 6-Propyl-4-(3-trifluoromethyl-5,6-dihydro-8H-[1,2,4]triazolo[4,3-a]pyrazin-7-yl)thieno[2,3-d]pyrimidine-2-carboxylic acid benzylamide] | 210 | 1600
CCc1cc2c(N3CCn4c(nnc4C(F)(F)F)C3)nc(CO)nc2s1 [Example 4-18, [6-Ethyl-4-(3-trifluoromethyl-5,6-dihydro-8H-[1,2,4]triazolo[4,3-a]pyrazin-7-yl)thieno[2,3-d]pyrimidin-2-yl]methanol] | 1530 | 1600
CCCc1cc2c(N3CCn4c(nnc4C(F)(F)F)C3)nc(CO)nc2s1 [Example 4-19, [6-Propyl-4-(3-trifluoromethyl-5,6-dihydro-8H-[1,2,4]triazolo[4,3-a]pyrazin-7-yl)-thieno[2,3-d]pyrimidin-2-yl]methanol] | 500 | 250
CCCc1cc2c(N3CCn4c(nnc4C(F)(F)F)C3)nc(CN3CC[C@@H](O)C3)nc2s1 [Example 4-21, (R)-1-[6-Propyl-4-(3-trifluoromethyl-5,6-dihydro-8H-[1,2,4]triazolo[4,3-a]pyrazin-7-yl)thieno[2,3-d]pyrimidin-2-ylmethyl]pyrrolidin-3-ol] | 1110 | 140
CCCc1cc2c(N3CCn4c(nnc4C(F)(F)F)C3)nc(COC(=O)c3ccccc3)nc2s1 [Example 4-22, Benzoic Acid 6-propyl-4-(3-trifluoromethyl-5,6-dihydro-8H-[1,2,4]triazolo[4,3-a]pyrazin-7-yl)thieno[2,3-d]pyrimidin-2-ylmethyl ester] | 850 | 1600
CCCc1cc2c(N3CCn4c(nnc4C(F)(F)F)C3)nc(COc3ccccc3)nc2s1 [Example 4-23, 7-(2-Phenoxymethyl-6-propyl-thieno[2,3-d]pyrimidin-4-yl)-3-trifluoromethyl-5,6,7,8-tetrahydro-[1,2,4]triazolo[4,3-a]pyrazine] | 420 | 6850
CCCc1cc2c(N3CCn4c(nnc4C(F)(F)F)C3)nc(COc3ccccc3C(=O)OC)nc2s1 [Example 4-24, 2-[6-Propyl-4-(3-trifluoromethyl-5,6-dihydro-8H-[1,2,4]triazolo[4,3-a]pyrazin-7-yl)thieno[2,3-d]pyrimidin-2-ylmethoxy]benzoic acid methyl ester] | 700 | 8100
CCCc1cc2c(N3CCn4c(nnc4C(F)(F)F)C3)nc(COc3ccccc3C(=O)O)nc2s1 [Example 4-25, 2-[6-Propyl-4-(3-trifluoromethyl-5,6-dihydro-8H-[1,2,4]triazolo[4,3-a]pyrazin-7-yl)thieno[2,3-d]pyrimidin-2-ylmethoxy]benzoic acid] | 353 | 1900
CCCc1cc2c(N3CCn4c(nnc4C(F)(F)F)C3)nc(COc3cccc(C(=O)O)c3)nc2s1 [Example 4-26, 3-[6-Propyl-4-(3-trifluoromethyl-5,6-dihydro-8H-[1,2,4]triazolo[4,3-a]pyrazin-7-yl)thieno[2,3-d]pyrimidin-2-ylmethoxy]benzoic acid] | 160 | 2100
CCCc1cc2c(N3CCn4c(nnc4C(F)(F)F)C3)nc(-c3nc(CC)no3)nc2s1 [Example 4-27, 7-[2-(3-Ethyl-[1,2,4]oxadiazol-5-yl)-6-propyl-thieno[2,3-d]pyrimidin-4-yl]-3-trifluoromethyl-5,6,7,8-tetrahydro-[1,2,4]triazolo[4,3-a]pyrazine] | 130 | 1500
CCCc1cc2c(N3CCn4c(nnc4C(F)(F)F)C3)nc(-c3nc(-c4ccccc4)no3)nc2s1 [Example 4-28, 7-[2-(3-Phenyl-[1,2,4]oxadiazol-5-yl)-6-propyl-thieno[2,3-d]pyrimidin-4-yl)-3-trifluoromethyl-5,6,7,8-tetrahydro-[1,2,4]triazolo[4,3-a]pyrazine] | 330 | 670
CCCc1cc2c(N3CCn4c(nnc4C(F)(F)F)C3)nc(-c3nc(CCOC)no3)nc2s1 [Example 4-29, 7-{2-[3-(2-Methoxy-ethyl)-[1,2,4]oxadiazol-5-yl]-6-propyl-thieno[2,3-d]pyrimidin-4-yl}-3-trifluoromethyl-5,6,7,8-tetrahydro-[1,2,4]triazolo[4,3-a]pyrazine] | 330 | 480
